“Also recorded” adds a separate entry of the source.
Tests used:
[1] = Thermal transitions by differential scanning calorimetry (glass transition temperature); format: physicochemical; settings: DSC; for Tg with 50% PCZ: mixture with Polycarbonate Z binder; for Tg without binder: neat sample
Experimental: Thermal transition data for various charge transport compounds was collected using a TA Instruments Model 2929 Differential Scanning Calorimeter (New Castle, DE) equipped with a DSC cooling system (-70°C minimum temperature limit), and dry helium and nitrogen exchange gases. The calorimeter ran on a Thermal Analyst 2100 workstation with version 8.10B software. An empty aluminum pall was used as the reference.
Samples were tested both neat and as a mixture with Polycarbonate Z ("PCZ"). The neat samples were prepared by placing 4.0 to 8.0 mg of neat charge transport material into an aluminum sample pan and crimping the upper lid to produce a hermetically sealed sample for DSC testing. The results were normalized on a unit mass basis.
The Polycarbonate Z-mixed samples were prepared by filling the bottom portion of the aluminum sample pan with a 15-20% solid solution of the charge transport material in Polycarbonate Z, followed by air-drying overnight. Each air-dried sample was then placed in a convection oven at 50-55°C for 24-48 hours to fully remove the solvent, after which the upper sample lid was crimped on to produce a sealed sample for DSC testing. Each sample size was in the range of 7.0-15.0 mg. The results were normalized on a unit mass basis.
Each sample was subjected to the following protocol to evaluate its thermal transition behavior: • 1. Equilibrate at 0°C (Default--Nitrogen Heat Exchange Gas); • 2. Isothermal for 5 min.; • 3. External Event: Nitrogen Heat Exchange Gas; • 4. Ramp 10.0°C/min to a temperature 30°C above the melting point of the charge transport material; • 5. External Event: Helium Heat Exchange Gas; • 6. Isothermal for 5 min.; • 7. Ramp 10.0°C/min to 0°C; • 8. External Event: Nitrogen Heat Exchange Gas; • 9. Isothermal for 5 min.; • 10. Ramp 10.0°C/min to a temperature 40°C above the melting point of the charge transport material; • 11. External Event: Helium Heat Exchange Gas; • 12. Isothermal for 5 min.; • 13. Ramp 10.0°C/min to 0°C; • 14. External Event: Nitrogen Heat Exchange Gas; • 15. Isothermal for 5 min; • 16. Ramp 10.0°C/min to 275°C.
The first cycle (steps 1-7) is used to (a) remove the thermal history of the sample, (b) obtain the melting transition for crystalline charge transport materials, and (c) obtain a homogeneous charge transport material/Polycarbonate Z mixture in the event the charge transport material is crystallized during sample preparation. A homogeneous mixture can be obtained as long as the charge transport material (molten or casted) is miscible with the Polycarbonate-Z.
The second cycle (steps 8-13) is used to identify the glass transition temperature and the recrystallization or melting transitions of charge transport materials.
The third cycle (steps 14-16) is used to report the final thermal transitions.
All temperatures are reported in °C. The abbreviation "CTM" indicates charge transport compounds. The abbreviation "PCZ" indicates the Polycarbonate Z binder.

[2] = Ionization potential by electron photoemission in air; format: physicochemical; settings: CTM layer without binder; error ±0.03 eV
Experimental: Samples for ionization potential (Ip) measurements were prepared by dissolving compounds (B), (C), (E), (F), (G), and (H) and Comparative Example A separately in tetrahydrofuran. Each solution was hand-coated on an aluminized polyester substrate that was precision coated with a methylcellulose-based adhesive sub-layer to form a charge transport material (CTM) layer. The role of this sub-layer was to improve adhesion of the CTM layer, to retard crystallization of CTM, and to eliminate the electron photoemission from the Al layer through possible CTM layer defects. No photoemission was detected from the Al layer through the sub-layer at illumination with up to 6.4 eV quantum energy light. In addition, the adhesive sub-layer was conductive enough to avoid charge accumulation on it during measurement. The thickness of both the sub-layer and CTM layer was about 0.4 µm. No binder material was used in the preparation of the samples for Ip measurements. In most cases, the thin CTM layers were in a meta-stable amorphous phase, delaying crystallization for several hours, so that the measurement of the samples was possible.
The ionization potential was measured by the electron photoemission in an air method similar to that described in "Ionization Potential of Organic Pigment Film by Atmospheric Photoelectron Emission Analysis", Electrophotography, 28, No. 4, p. 364. (1989) by E. Miyamoto, Y. Yamaguchi, and M. Yokoyama, which is hereby incorporated by reference. The samples were illuminated with monochromatic light from a quartz monochromator with a deuterium lamp source. The power of the incident light beam was 2-5×10^-8 W. The negative voltage of -300 V was supplied to the sample substrate. The counter-electrode with the 4.5×15 mm^2 slit for illumination was placed at 8 mm distance from the sample surface. The counter-electrode was connected to the input of the BK2-16 type electrometer, working in the open input regime, for the photocurrent measurement. A photocurrent of 10^-15-10^-12 amp was flowed in the circuit under illumination. The photocurrent, I, was strongly dependent on the incident light photon energy hν. The I^0.5=f(hν) dependence was plotted. Usually the dependence of the square root of photocurrent on incident light quantum energy is well described by linear relationship near the threshold [see references "Ionization Potential of Organic Pigment Film by Atmospheric Photoelectron Emission Analysis", Electrophotography, 28, No. 4, p. 364. (1989) by E. Miyamoto, Y. Yamaguchi, and M. Yokoyama; and "Photoemission in Solids", Topics in Applied Physics, 26, 1-103. (1978) by M. Cordona and L. Ley]. The linear part of this dependence was extrapolated to the hν axis, and Ip value was determined as the photon energy at the interception point.

[3] = Solubility testing in tetrahydrofuran at room temperature; settings: tetrahydrofuran as solvent
Experimental: Solubility testing was performed for individual charge transport compounds at room temperature using tetrahydrofuran as a solvent. The solubility was determined as the percent solids of saturated solution. In general, it is desirable to maximize the solubility value.

| Compound | Tg with 50% PCZ [1] [°C] | Tg without binder [1] [°C] | lp (ionization potential) [2] | Solubility [3] |
| --- | --- | --- | --- | --- |
| CCn1c2ccccc2c2cc(C=NN(CCCCCCCCCCN(N=Cc3ccc4c(c3)c3ccccc3n4CC)c3ccccc3)c3ccccc3)ccc21 [B] | 83.7 | 46 | 5.44 eV |  |
| CCn1c2ccccc2c2cc(C=NN(CCCCCN(N=Cc3ccc4c(c3)c3ccccc3n4CC)c3ccccc3)c3ccccc3)ccc21 [C] | 102.5 | 84.4 | 5.34 eV |  |
| CCn1c2ccccc2c2cc(C=NN(CCCCN(N=Cc3ccc4c(c3)c3ccccc3n4CC)c3ccccc3)c3ccccc3)ccc21 [D] |  | 79.1 |  |  |
| CCCCCCCn1c2ccccc2c2cc(C=NN(CCCCCCCCCCN(N=Cc3ccc4c(c3)c3ccccc3n4CCCCCCC)c3ccccc3)c3ccccc3)ccc21 [E] | 56.9 | 29.3 | 5.38 eV |  |
| CCCCCCCn1c2ccccc2c2cc(C=NN(CCCCCN(N=Cc3ccc4c(c3)c3ccccc3n4CCCCCCC)c3ccccc3)c3ccccc3)ccc21 [F] | 78.3 | 44.5 | 5.23 eV |  |
| CCCCn1c2ccccc2c2cc(/C=N/N(CCCCCCN(/N=C/c3ccc4c(c3)c3ccccc3n4CCCC)c3ccccc3)c3ccccc3)ccc21 [H] |  |  | 5.35, layer with crystal inclusions eV | limited solubility; also recorded: Insoluble |
